The values that follow come from US20250313548A1 (Actio Biosciences, Inc., priority 2023, published 2025).

A value given as a limit tells only on which side of the number the result lay.

Usually IC50 stands for the concentration at which inhibition is half-maximal. A lower IC50 goes with greater potency.

human, KCNT1, sequence (Q5JUK3 whole entry): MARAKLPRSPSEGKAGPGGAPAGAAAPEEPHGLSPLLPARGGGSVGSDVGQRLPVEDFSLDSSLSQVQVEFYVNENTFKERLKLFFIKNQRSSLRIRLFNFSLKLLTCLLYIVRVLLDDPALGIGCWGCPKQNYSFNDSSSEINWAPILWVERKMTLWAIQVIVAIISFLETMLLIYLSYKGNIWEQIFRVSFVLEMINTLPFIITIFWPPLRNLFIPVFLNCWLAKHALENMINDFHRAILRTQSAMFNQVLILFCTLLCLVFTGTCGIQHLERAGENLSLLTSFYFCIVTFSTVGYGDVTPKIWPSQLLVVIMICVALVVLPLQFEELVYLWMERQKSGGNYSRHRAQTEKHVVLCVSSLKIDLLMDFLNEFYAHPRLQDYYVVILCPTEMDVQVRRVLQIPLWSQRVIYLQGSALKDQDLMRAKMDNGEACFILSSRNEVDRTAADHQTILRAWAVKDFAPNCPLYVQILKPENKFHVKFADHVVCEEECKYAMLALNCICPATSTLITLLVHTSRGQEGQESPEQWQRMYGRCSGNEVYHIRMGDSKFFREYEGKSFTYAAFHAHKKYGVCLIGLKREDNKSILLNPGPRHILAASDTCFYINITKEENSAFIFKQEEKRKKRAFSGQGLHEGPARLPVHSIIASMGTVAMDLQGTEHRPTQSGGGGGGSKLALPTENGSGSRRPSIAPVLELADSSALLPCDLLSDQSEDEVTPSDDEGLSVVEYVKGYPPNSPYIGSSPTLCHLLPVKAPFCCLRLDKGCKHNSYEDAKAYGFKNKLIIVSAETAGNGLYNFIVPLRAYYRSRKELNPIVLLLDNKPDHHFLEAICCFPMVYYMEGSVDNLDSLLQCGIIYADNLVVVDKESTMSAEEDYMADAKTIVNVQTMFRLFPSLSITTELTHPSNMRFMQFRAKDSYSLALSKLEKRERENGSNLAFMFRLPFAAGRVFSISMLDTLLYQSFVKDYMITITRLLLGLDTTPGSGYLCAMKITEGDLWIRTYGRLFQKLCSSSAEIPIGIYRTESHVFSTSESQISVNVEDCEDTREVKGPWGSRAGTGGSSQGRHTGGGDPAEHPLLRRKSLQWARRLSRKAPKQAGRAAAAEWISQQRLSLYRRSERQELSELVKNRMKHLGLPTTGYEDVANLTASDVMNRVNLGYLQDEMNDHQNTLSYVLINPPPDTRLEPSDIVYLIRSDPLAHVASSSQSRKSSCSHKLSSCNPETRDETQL

This assay concerns the target human, KCNT1 (Homo sapiens (Human), UniProt Q5JUK3). In words: FLIPR Tl/K Flux Assay. Type of assay: cell-based. The conditions noted are these: HEK293 cells stably expressing human KCNT1; Tl+ flux stimulated with EC80 of agonist Loxapine. The protocol:
HEK293 cells stably expressing human, KCNT1 were cultured in DMEM, 10% FBS, 100 U/mL penicillin-streptomycin and […] puromycin for selection purposes. One day before the assay, cells were detached using TrypLE™ Express and counted using a cell counter. Only cells with >85% viability were used for the assay. […] The cells were incubated overnight at 37° C., 5% (v/v) CO2.
On the day of the assay, the reagents were prepared following the FLIPR® Potassium Assay Kit manual: prepare 2× dye solution, dilute the dye with assay buffer (20 mM HEPES in 1× HBSS, PH7.4), addition of probenecid to a final concentration of 5 mM, and vortexed vigorously for 1-2 minutes. The cell plate was flicked to remove medium and tapped on paper towels to remove excess media. […] The cell plate was moved to a plate shaker, agitated at 600 rpm for two minutes, and then incubated at 25° C. for one hour.
The compounds were prepared in DMSO and transferred to a 384-well compound plate (PP, low binding), referred to as a source plate. Reference agonist (300 nM) compound and test inhibitor (10 mM) compounds were added to the compound plate and a 4-fold serial dilution was performed in DMSO. Using an ECHO dispenser, compounds were dispensed at 90 nL/well from the source plate to a 384-well compound plate (PP, low binding). After the dispensing was complete, 30 µL/well assay buffer was added to the compound plate and mixed for two minutes on a plate shaker. The cell plate, compound plate, and tips were loaded into the FLIPR instrument, and a transfer of 10 μl of 3× compound to the cell plate was initiated. The treated cell plate was kept at in the dark at 25° C. for 30 minutes. Chloride-free stimulation buffer containing 4× 2 mM Tl+ and 4×EC80 of agonist Loxapine was loaded into a 384-well compound plate (PP, low binding). After the 30-minute incubation, the cell plate, compound plate containing stimulation buffer, and FLIPR tips were loaded into the FLIPR instrument. After a baseline read, the FLIPR initiates a transfer of 10 μL of stimulation buffer containing Loxapine to the cell plate. The plate was read for 160 sec with 1 second interval reads to obtain the data.
The normalized fluorescence reading (RFU) was calculated as shown follow, while Fmax and Fmin stand for maximum and minimum of signal during defined time window. The IC50 was calculated by fitting % inhibition against log of compound concentrations with Hill equation using XLfit.
`O=C(NC1CCCc2nn(-c3ccnc(C(F)(F)F)c3)cc21)c1cccnc1` (racemic) [Compound I-32, (rac)-N-(2-(2-(Trifluoromethyl)pyridin-4-yl)-4,5,6,7-tetrahydro-2H-indazol-4-yl)nicotinamide] had an IC50 of more than 1000 nM.
For `Cn1nc(C(F)(F)F)cc1C(=O)NC1CCCc2nn(-c3ccc(=O)[nH]c3)cc21` (racemic) [Compound I-33, (rac)-1-Methyl-N-(2-(6-oxo-1,6-dihydropyridin-3-yl)-4,5,6,7-tetrahydro-2H-indazol-4-yl)-3-(trifluoromethyl)-1H-pyrazole-5-carboxamide], the IC50 was more than 1000 nM.
To `Cn1nc(C(F)(F)F)cc1C(=O)NC1CCCc2nn(-c3ccn4ccnc4c3)cc21` (racemic) [Compound I-34, (rac)-N-(2-(Imidazo[1,2-a]pyridin-7-yl)-4,5,6,7-tetrahydro-2H-indazol-4-yl)-1-methyl-3-(trifluoromethyl)-1H-pyrazole-5-carboxamide] belongs more than 1000 nM; to `Cn1nc(C(F)(F)F)cc1C(=O)NC1CCCc2nn(-c3cc[nH]c(=O)c3)cc21` (racemic) [Compound I-35, (rac)-1-Methyl-N-(2-(2-oxo-1,2-dihydropyridin-4-yl)-4,5,6,7-tetrahydro-2H-indazol-4-yl)-3-(trifluoromethyl)-1H-pyrazole-5-carboxamide], more than 1000 nM; to `O=C(NC1CCCc2nn(-c3ccnc(C(F)(F)F)c3)cc21)c1ccncc1` (racemic) [Compound I-36, (rac)-N-(2-(2-(Trifluoromethyl)pyridin-4-yl)-4,5,6,7-tetrahydro-2H-indazol-4-yl)isonicotinamide], more than 1000 nM.
`Cn1nc(C(F)(F)F)cc1C(=O)NC1CCCc2nn(-c3ccn4nccc4c3)cc21` (racemic) [Compound I-38, (rac)-1-Methyl-N-(2-(pyrazolo[1,5-a]pyridin-5-yl)-4,5,6,7-tetrahydro-2H-indazol-4-yl)-3-(trifluoromethyl)-1H-pyrazole-5-carboxamide] had an IC50 of more than 1000 nM.
Compound `Cn1nc(C(F)(F)F)cc1C(=O)NC1CCCc2nn(-c3ccc(=O)n(C)c3)cc21` (racemic) [Compound I-39, (rac)-1-Methyl-N-(2-(1-methyl-6-oxo-1,6-dihydropyridin-3-yl)-4,5,6,7-tetrahydro-2H-indazol-4-yl)-3-(trifluoromethyl)-1H-pyrazole-5-carboxamide] yielded an IC50 of more than 1000 nM.
Next, `Cn1nc(C(F)(F)F)cc1C(=O)NC1CCCc2nn(-c3ccn(C)c(=O)c3)cc21` (racemic) [Compound I-40, (rac)-1-Methyl-N-(2-(1-methyl-2-oxo-1,2-dihydropyridin-4-yl)-4,5,6,7-tetrahydro-2H-indazol-4-yl)-3-(trifluoromethyl)-1H-pyrazole-5-carboxamide]: more than 1000 nM.
Next, `Cn1nc(C(F)(F)F)cc1C(=O)NC1CCCn2nc(-c3ccnc(C(F)(F)F)c3)cc21` (racemic) [Compound I-42, (rac)-1-Methyl-3-(trifluoromethyl)-N-(2-(2-(trifluoromethyl)pyridin-4-yl)-4,5,6,7-tetrahydropyrazolo[1,5-a]pyridin-4-yl)-1H-pyrazole-5-carboxamide]: less than 250 nM; `Cn1nc(C(F)(F)F)cc1C(=O)NC1CCCCc2nn(-c3ccnc(C(F)(F)F)c3)cc21` (racemic) [Compound I-45, (rac)-1-Methyl-3-(trifluoromethyl)-N-(2-(2-(trifluoromethyl)pyridin-4-yl)-2,4,5,6,7,8-hexahydrocyclohepta[c]pyrazol-4-yl)-1H-pyrazole-5-carboxamide]: less than 250 nM.
To `CCOc1cc(-n2cc3c(n2)CCCC3NC(=O)c2cc(C(F)(F)F)nn2CC)ccn1` (racemic) [Compound I-55, (rac)-N-(2-(2-Ethoxypyridin-4-yl)-4,5,6,7-tetrahydro-2H-indazol-4-yl)-1-ethyl-3-(trifluoromethyl)-1H-pyrazole-5-carboxamide] belongs less than 250 nM.
Compound `CCOc1cc(-n2cc3c(n2)CCCCC3NC(=O)c2cccc(C)c2)ccn1` (racemic) [Compound I-59, (rac)-N-(2-(2-Ethoxypyridin-4-yl)-2,4,5,6,7,8-hexahydrocyclohepta[c]pyrazol-4-yl)-3-methylbenzamide] showed an IC50 of less than 250 nM.
To `CCOc1cc(-n2cc3c(n2)CCCCC3NC(=O)c2cccc(C(F)(F)F)c2)ccn1` (racemic) [Compound I-61, (rac)-N-(2-(2-Ethoxypyridin-4-yl)-2,4,5,6,7,8-hexahydrocyclohepta[c]pyrazol-4-yl)-3-(trifluoromethyl)benzamide] belongs less than 250 nM.
As for `Cn1nc(C(F)(F)F)cc1C(=O)NC1CCc2nn(-c3ccnc(C(F)(F)F)c3)cc2C1` (racemic) [Compound I-63, (rac)-1-Methyl-3-(trifluoromethyl)-N-(2-(2-(trifluoromethyl)pyridin-4-yl)-4,5,6,7-tetrahydro-2H-indazol-5-yl)-1H-pyrazole-5-carboxamide], the IC50 was less than 250 nM.
Next, `Cn1nc(C(F)(F)F)cc1C(=O)NC1CCCCn2nc(-c3ccnc(C4CC4)c3)cc21` (single isomer, unassigned) [Compound I-67]: less than 250 nM.
`O=C(N[C@H]1CCCCc2nn(-c3ccnc(C(F)(F)F)c3)cc21)c1cc(Cl)cc(C(F)(F)F)c1` (single isomer, unassigned) [Compound I-109a] gave an IC50 of less than 250 nM.
Next, `Cc1cc(F)cc(C(=O)N[C@H]2CCc3nn(-c4ccnc(C(F)(F)F)c4)cc32)c1` (single isomer, unassigned) [Compound I-384a]: less than 250 nM; `Cn1cc(C(=O)N[C@H]2CCCn3nc(-c4ccnc(C(F)(F)F)c4)cc32)c(C(F)(F)F)c1` (single isomer, unassigned) [Compound I-409a]: less than 250 nM; `COc1cc(-c2cc3n(n2)CCC3NC(=O)c2nc(C(F)(F)F)nn2C)ccn1` (single isomer, unassigned) [Compound I-473]: more than 1000 nM.
On to `CC(F)(F)c1cc(-c2nc3c(o2)CCCC3NC(=O)c2cc(C(F)(F)F)n(C(F)F)n2)ccn1` (single isomer, unassigned) [Compound I-534], for which the IC50 was less than 250 nM.
Take `CC(F)(F)c1cc(-c2nc3c(o2)CCCC3NC(=O)c2cn(C(F)(F)F)nc2C(F)F)ccn1` (single isomer, unassigned) [Compound I-535]: the IC50 is less than 250 nM.
The compound `Cn1nc(C(F)(F)F)cc1C(=O)N[C@H]1CCCc2nc(-c3ccnc(C(F)(F)F)c3)ccc21` (single isomer, unassigned) [I-149*] showed an IC50 of less than 250 nM.
To `O=C(N[C@H]1CCCc2cnc(-c3ccnc(C(F)(F)F)c3)cc21)c1cc2cccnn2c1` (single isomer, unassigned) [I-268*] belongs more than 1000 nM; to `COc1cc(C(=O)N[C@H]2CCCc3cnc(-c4ccnc(C(F)(F)F)c4)cc32)ccn1` (single isomer, unassigned) [I-269*], more than 1000 nM.
`O=C(N[C@H]1CCCc2cnc(-c3ccnc(C(F)(F)F)c3)cc21)c1cncc(C(F)(F)F)n1` (single isomer, unassigned) [I-270*]: the IC50 was more than 1000 nM.
Next, `Cc1nc(C(F)(F)F)oc1C(=O)N[C@H]1CCCc2cnc(-c3ccnc(C(F)(F)F)c3)cc21` (single isomer, unassigned) [I-271*]: 500 to 1000 nM; `Cn1nc(C(F)(F)F)cc1C(=O)N[C@H]1CCCCn2nc(-c3ccnc(C(F)(F)F)c3)nc21` (single isomer, unassigned) [I-272*]: less than 250 nM.
To `N#Cc1cccc(C(=O)NC2CCCn3cc(-c4ccnc(C(F)(F)F)c4)cc32)c1` (single isomer, unassigned) [I-309*] belongs less than 250 nM.
To `N#Cc1cccc(C(=O)N[C@H]2CCn3cc(-c4ccnc(C(F)(F)F)c4)cc32)c1` (stereo in doubt) [Compound I-276a, 3-Cyano-N-(6-(2-(trifluoromethyl)pyridin-4-yl)-2,3-dihydro-1H-pyrrolizin-1-yl)benzamide] belongs less than 250 nM; to `Cn1nc(C(F)(F)F)cc1C(=O)N[C@H]1CCc2nn(-c3ccnc(C(F)(F)F)c3)cc21` [Compound I-1a, (S)-1-Methyl-3-(trifluoromethyl)-N-(2-(2-(trifluoromethyl)pyridin-4-yl)-2,4,5,6-tetrahydrocyclopenta[c]pyrazol-4-yl)-1H-pyrazole-5-carboxamide], less than 250 nM.
For `Cn1nc(C(F)(F)F)cc1C(=O)N[C@@H]1CCc2nn(-c3ccnc(C(F)(F)F)c3)cc21` [Compound I-1b, (R)-1-Methyl-3-(trifluoromethyl)-N-(2-(2-(trifluoromethyl)pyridin-4-yl)-2,4,5,6-tetrahydrocyclopenta[c]pyrazol-4-yl)-1H-pyrazole-5-carboxamide], the IC50 is more than 1000 nM.
